In US20220133894A1, “BISPHOSPHONATE-LINKED COMPOUNDS” (OREGON HEALTH & SCIENCE UNIVERSITY, priority 2019, published 2022):

Key:
[1] = system: MDA-MB-231 human breast cancer cells; assay: 7 day colony formation assay, chemotherapy with or without KBU2046; type: cell-based
Procedure: (§1) To assess the impact of cytotoxic chemotherapy on PCa growth kinetics seven-day soft agar colony formation assays and three-day MTT cell growth inhibition assays were performed as described by us ([…] et al., Cancer Lett 352, 179-186 (2014)). MTT assays were in replicates of N=3, and were repeated, soft agar assays were in replicates of N=2 and are presented as mean number of colonies, expressed as percent of untreated controls. For PC3-M PCa and MDA-MB-231 triple negative breast cancer cells, data are the mean±SD (N=2 replicates) number of colonies in 7 day colony formation assays. All data are expressed as the percentage of untreated control cells. Cells were treated with 10 μM KBU2046 or vehicle (CO), and the indicated concentration and type of chemotherapy.

RAW 267.4 cells = assay: Osteoclast morphology and maturation (actin/DAPI immunofluorescence, TRAP staining); type: cell-based, mouse
Source text: Treatment of RAW 267.4 cells with KBU2046 induces several structural and functional changes. It reduces RANKL-mediated formation of multinucleated cells, and those that do form have lower numbers of nuclei (see 40× panels, FIG. 4B). The characteristic prominent actin ring (white arrow) surrounding the resorptive cavity (yellow arrow) is readily apparent in control cells treated with RANKL ligand, but is lacking in KBU2046-treated cells (100×, panels). Consistent with it inhibiting maturation of RAW 267.4 cells, TRAP staining is decreased in KBU2046-treated cells (FIG. 4C).
FIG. 4 represents the KBU2046 inhibition of osteoclast function. FIG. 4A compares effects on Raf1 activation. RAW 267.4 cells were treated with RANKL for 4 days, treated with 10 μM KBU2046 for the indicated time periods, and Western blot for the denoted proteins performed. (B) Effects on cell morphology. RAW 267.4 cells were treated with RANKL and with KBU2046 for 4 days, or not, and denoted, and stained for actin (green) and DAPI (blue); white arrow denotes an actin ring, yellow arrow a resorptive cavity. Representative immunofluorescent images are depicted. (C) Tartrate resistant acid phosphatase (TRAP) expression. Cells were treated as in B, stained for TRAP (denoted by presence of red), and representative images from light microscopy depicted. (D) Bone degradation. RAW 267.4 cells were plated onto Osteo Assay plates, treated with RANKL for 6 days and with KBU2046 (or vehicle for controls) as indicated and bone surface area quantified. Data are the mean±SEM (N=3 replicates) of bone surface area, expressed as the percentage of control cells; * denotes P<0.05 compared to control.
Raw 264.7 cells were grown in differentiation medium (described below), with or without KBU2046, for 4 days on a Chamber Slide (Nunc Lab-Tek). Chambers were washed once with PBS, followed by 10-minute fixation in cold 10% neutral-buffered formalin (VWR) and a post-fixation wash with PBS. […] The cells were then incubated for 2 hours at 4° C. in Dylight Phallodin (Cell Signaling technology, #12935) antibody diluted 1:40 in 1×PBS with 1% BSA and 0.3% Triton X-100. Subsequently, the slide was washed once with PBS, a coverslip mounted with ProLong Gold Antifade Reagent with DAPI (Cell Signaling Technology, #8961), and imaged on a Confocal Microscope (Nikon/Yokogawa Spinning Disc).

PC3-M-luc cells = assay: PCa orthotopic implantation, primary tumor growth and lung metastasis; type: in vivo, mice; conditions: orthotopic PC3-M-luc, 150 mg/kg KBU2046 daily
Procedure: To assess the efficacy of a spectrum of docetaxel concentrations, mice received orthotopic implants of PC3-M-luc cells, were treated with 0, 10 or 20 mg/kg docetaxel, and tumor growth monitored with weekly IVIS imaging. […] Subsequently, mice with orthotopic implants of PC3-M-luc cells were treated with docetaxel, KBU2046, docetaxel+KBU2046 or vehicle, as denoted, and effects on primary tumor growth and lung metastasis quantified (FIGS. 2A, 2B, and 2C).
Cohorts of N=10 mice bearing orthotopic implants of PC3-M-luc cells were treated daily with 150 mg/kg KUB2046 (46), intraperitoneal docetaxel 7.5 mg/kg weekly (doc), the combination (doc+46), or with oral and intraperitoneal vehicle (CO). KBU2046 treatment began 3 days before implantation and docetaxel began 1 week after. (A) Lung metastasis measured by qPCR for human Alu sequences, expressed as percent control (B) Weekly IVIS imaging of tumor. (C) Tumor weight. * denotes P<0.05 for differences between cohorts denoted by bars. All data are mean±SEM.
PCa orthotopic implantation: Orthotopic implantation of 2.5×10^5 PC3M-luc into 7-8 week old male athymic mice was performed as previously described by us (5, 52 Xu et al., above; and Pavese et al., J Vis Exp, e50873 (2013)). Daily oral gavage treatment with 150 mg/kg KBU2046 or was initiated 3 days prior to implantation and continued throughout the duration of the study. Weekly IP injections with 7.5 mg/kg docetaxel or control were administered beginning one week post implantation. Primary tumor out growth was monitored via weekly IVIS imaging. At the completion of the study the primary tumor was resected and weighed and lungs were resected and snap frozen. To determine the human PCa metastatic burden in each mouse lung, the snap frozen tissue was pulverized, DNA isolated and Alu-sequencing performed as previously described (19). […] (SEQ ID NO: 3). The 144RH probe was labeled with a 5′ fluorescent reporter (6-FAM) and a 3′ fluorescent quencher (Black Hole Quencher). The relative content of human DNA was calculated with using the comparative CT method, CT (sample)-CT(negative control). All samples were run in triplicate and were repeated.

PC3-M cells = assay: 7 day colony formation assay, chemotherapy with or without KBU2046; type: cell-based, human
Procedure: as §1

Structure (SMILES): O=C1c2ccccc2OCC1c1ccc(F)cc1 (centres unmarked) [KBU2046, 3-(4-fluorophenyl)chroman-4-one]
- effect on activity of adriamycin ([1]; 10 μM KBU2046, MDA-MB-231 cells, FIG. 13): does not inhibit
- effect on activity of vinblastine ([1]; 10 μM KBU2046, MDA-MB-231 cells, FIG. 15): does not inhibit
- effect on activity of taxol ([1]; 10 μM KBU2046, MDA-MB-231 cells, FIG. 17): does not inhibit
- interference upon cytotoxic action of adriamycin, taxol and vinblastine ([1]; KBU2046 co-administered, MDA-MB-231 cells): lack of interference
- RANKL-mediated formation of multinucleated cells (RAW 267.4 cells; RANKL and KBU2046 for 4 days): reduces
- TRAP staining (RAW 267.4 cells; RANKL and KBU2046 for 4 days): decreased
- actin ring surrounding the resorptive cavity (RAW 267.4 cells; RANKL and KBU2046 for 4 days): lacking
- cellular extensions of undifferentiated cells (RAW 267.4 cells; absence of RANKL): markedly reduces
- decrease of tumor weight compared to control (PC3-M-luc cells; docetaxel 7.5 mg/kg weekly): no significant effect
- decrease of lung metastasis compared to control (human Alu qPCR) (PC3-M-luc cells; docetaxel 7.5 mg/kg weekly intraperitoneal): 20%
- effect on activity of adriamycin (PC3-M cells; 10 μM KBU2046, PC3-M cells, FIG. 14): does not inhibit
- effect on activity of vinblastine (PC3-M cells; 10 μM KBU2046, PC3-M cells, FIG. 16): does not inhibit
- effect on activity of taxol (PC3-M cells; 10 μM KBU2046, PC3-M cells, FIG. 18): does not inhibit
- interference upon cytotoxic action of adriamycin, taxol and vinblastine (PC3-M cells; KBU2046 co-administered, PC3-M cells): lack of interference
